The subject of series [1] is interferon γ (IFN-γ) production. Kind of series: Cytokine production inhibitory effect: IFN-γ production by murine spleen cells treated with anti-mouse CD3 antibody and IL-2 (ELISA). Type of series: cell-based, Balb/c mice. Particulars: anti-CD3 antibody + IL-2, 40 to 48 hours, read-out: IFN-γ production inhibitory ratio (%); for inhibition at 100 ppm: test compound 100 ppm. The procedure:
(§1) Murine spleen cells were treated with anti-mouse CD3 antibody and IL-2 to induce cytokine production. The test compounds were added to the cytokine production system to evaluate their inhibitory effect. Namely, anti-mouse CD3 antibody adjusted to from 10 to 20 μg/ml with borate buffered physiological saline (pH 8.5) was pipetted into a 96-well cell culture plate in an amount of 50 μl/well and left to stand at 4° C. for 18 hours. The unreacted solution was removed, washing with Hank's buffer solution was carried out once, and IL-2 adjusted to 10 ng/ml with a RPMI liquid containing 10% fetal bovine serum (FCS) was pipetted in an amount of 50 μl/well. For the negative control group, a solution alone without anti-CD3 antibody nor IL-2 was applied. Then, the diluted solution of each of the test compounds (concentration: 100 ppm unless otherwise specified) was pipetted in an amount of 50 μl/well, and a cell suspension of 1×10^7 cells/ml, prepared from spleen of Balb/c mice (female, 7 to 10 week old) was pipetted thereinto in an amount of 100 μl/well. After cultivation in an incubator (37° C., 5% carbon dioxide gas) for from 40 to 48 hours, the culture supernatant was recovered to measure the cytokine production amount by ELISA method.
(§2) With respect to interleukin 5 (IL-5) as a typical Th2 type cytokine and interferon γ (IFN-γ) as a typical Th1 type cytokine, measurements were carried out by the following methods, respectively. Namely, quantitative determination of IL-5 was carried out by the following ELISA method. First, rat anti-mouse IL-5 antibody (Endogen Code No. MM-550C) as a primary antibody was diluted with carbonate buffer solution (pH 9.5) to 1 μg/ml, and spread in a 96 well plate (IWAKI, Code No. 3860-096) in an amount of 50 μl/well for coating at 4° C. overnight (16 to 24 hours). Then, the plate was subjected to blocking at 37° C. for 2 hours by phosphate buffered physiological saline containing 10% FCS (pH 7.2) (blocking buffer solution) (250 μl/well). The plate was washed with PBS (washing buffer) containing 0.05% Tween 20 (Nacalai Tesque, Code No. 281-51) four times, and a diluted liquid of the culture supernatant was spread in an amount of 50 μl/well, followed by incubation at room temperature for 1 hour. For preparation of a standard line, recombinant mouse IL-5 (R&D systems, Code No. 405-ML) was employed. The plate was washed with a washing buffer four times, and biotin-labeled rat anti-mouse IL-5 antibody (Pharmingen, Code No. 18062D) as a secondary antibody diluted to 0.5 μg/ml with a blocking buffer containing 0.05% Tween 20 was added thereto (50 μl/well), followed by incubation at room temperature for 1 hour. The plate was washed with a washing buffer four times, strept avidin-labeled peroxidase (ProZyme, Code No. CJ30H001) diluted 800 times with a blocking buffer containing 0.05% Tween 20 was added thereto (50 μl/well), followed by reaction at room temperature for 15 minutes. The plate was washed with a washing buffer four times, and a […] substrate solution (SIGMA, Code No. T-8665) was added thereto in an amount of 100 μl/well for color developing for from 10 to 20 minutes. A 1M sulfuric acid solution was added thereto in an amount of 100 μl/well to terminate the reaction, and absorption (wavelength 450 nm) was measured by means of micro plate reader (SPECTRA max, Wako Pure Chemicals Industries, Ltd.). Quantitative determination of IFN-γ was carried out in the same manner as the measurement of IL-5, employing rat anti-mouse IFN-γ antibody (Pharmingen, Code No. 18181D) and biotin labeled rat anti-mouse IFN-γ antibody (Pharmingen, Code NO. 18112D), as a primary antibody and a secondary antibody, respectively. For preparation of a standard line, recombinant mouse IFN-γ (GENZYME, Code No. 3485) was employed. The experiment was carried out in duplicate, and the average of the cytokine production amount was obtained. […]
In general terms: An ELISA detects its analyte on a solid surface through an enzyme-linked reagent.

Series [2] deals with interleukin 5 (IL-5) production. As to the kind of experiment: Cytokine production inhibitory effect: IL-5 production by murine spleen cells treated with anti-mouse CD3 antibody and IL-2 (ELISA). Type of series: cell-based, Balb/c mice. Particulars: anti-CD3 antibody + IL-2, 40 to 48 hours, read-out: IL-5 production inhibitory ratio (%); for inhibition at 100 ppm: test compound 100 ppm. The procedure:
as §1, §2

Structures are written as SMILES.

In turn, `Cc1cc(C23CC4CC(CC(C4)C2)C3)ccc1NC(=O)c1cc([N+](=O)[O-])ccc1Cl` [Compound No. 1] displayed a melting point of 219 °C. In addition, the inhibition at 100 ppm in series [1] is 90%. Further, the inhibition at 100 ppm in series [2] came out at 96%.

`Cc1cc(-c2nc3ccccc3s2)ccc1NC(=O)c1cc([N+](=O)[O-])ccc1Cl` [Compound No. 2] yielded a melting point of 220 to 226 °C. Further, the inhibition at 2 ppm in series [1] (test compound 2 ppm) was found to be 84%. For the same molecule, the inhibition at 2 ppm in series [2] (test compound 2 ppm) is 74%.

Consider `COc1ccc([N+](=O)[O-])c(OC)c1C(=O)Nc1cc(Cl)cc(Cl)c1` [Compound No. 4], for which the melting point came to 173 °C. Further, the inhibition at 100 ppm in series [1] came out at 76%. Also, the inhibition at 100 ppm in series [2] was found to be 47%.

The molecule `COc1cccc(C(=O)Nc2ccc(Oc3ccc(C(F)(F)F)cn3)c(Cl)c2)c1` [Compound No. 10] registered a melting point of 103 to 105 °C. The inhibition at 100 ppm in series [1] is 100%. For the same molecule, in series [2], the inhibition at 100 ppm is 100%.

Molecule `O=C(Nc1ccc(Oc2ccc(C(F)(F)F)cn2)c(Cl)c1)c1ccc(F)cc1` [Compound No. 12] yielded a melting point of 174 to 176 °C. Also, in series [2], the inhibition at 100 ppm worked out at 33%.

Molecule `O=C(Nc1ccc(Oc2ccc(C(F)(F)F)cn2)c(Cl)c1)c1ccccc1F` [Compound No. 13] returned a melting point of 141 to 143 °C. Besides, the inhibition at 100 ppm in series [2] stood at 36%.

As for `O=C(Nc1ccc(Oc2ccccc2)cc1)c1cc([N+](=O)[O-])ccc1Cl` [Compound No. 27, N-(4-phenoxyphenyl)-2-chloro-5-nitrobenzamide], the melting point amounted to 128 °C. The inhibition at 100 ppm in series [1] was 99%. In addition, the inhibition at 100 ppm in series [2] is 96%.

In turn, `Cc1cc(C23CC4CC(CC(C4)C2)C3)ccc1NC(=O)c1cc([N+](=O)[O-])ccc1Br` [Compound No. 46, N-(4-(1-adamantyl)-2-methylphenyl)-2-bromo-5-nitrobenzamide] had a melting point of 229 °C. In addition, the inhibition at 100 ppm in series [1] came out at 98%. For the same molecule, the inhibition at 100 ppm in series [2] turned out to be 100%.

The molecule `Cc1cc(C23CC4CC(CC(C4)C2)C3)ccc1NS(=O)(=O)c1cc([N+](=O)[O-])ccc1Cl` [Compound No. 48, N-(4-(1-adamantyl)-2-methylphenyl)-2-chloro-5-nitrobenzenesulfonamide] displayed a melting point of 238 °C. Moreover, the inhibition at 100 ppm in series [1] turned out to be 100%. The inhibition at 100 ppm in series [2] was 100%.

`Cc1cc(NC(=O)c2cc([N+](=O)[O-])ccc2Cl)ccc1Oc1ncc(C(F)(F)F)cc1Cl` [Compound No. 106, N-(4-(3-chloro-5-trifluoromethyl-2-pyridyloxy)-3-methylphenyl)-2-chloro-5-nitrobenzamide] had a melting point of 230 to 232 °C. Also, in series [1], the inhibition at 100 ppm was determined as 96%. Also, the inhibition at 100 ppm in series [2] is 83%.

Molecule `O=C(Nc1ccc(OC23CC4CC(CC(C4)C2)C3)nc1)c1cc([N+](=O)[O-])ccc1Cl` [Compound No. 123, N-(2-(1-adamantyloxy)-5-pyridyl)-2-chloro-5-nitrobenzamide] gave a melting point of 98 to 105 °C. Further, the inhibition at 100 ppm in series [1] came to 100%. Also, the inhibition at 100 ppm in series [2] was 100%.

`O=C(Nc1ccc(Oc2ncc(C(F)(F)F)cc2Cl)c(-n2cccc2)c1)c1cc([N+](=O)[O-])ccc1Cl` [Compound No. 127, N-(4-(3-chloro-5-trifluoromethyl-2-pyridyloxy)-3-(1-pyrrolyl)phenyl)-2-chloro-5-nitrobenzamide] returned a melting point of 165 to 167 °C. In addition, the inhibition at 100 ppm in series [1] amounted to 100%. In addition, the inhibition at 100 ppm in series [2] came out at 100%.

The molecule `O=C(Nc1ccc(Oc2ccc(C(F)(F)F)cn2)c(Cl)c1)c1ccc(F)cc1F` [compound 11] displayed a melting point of 145 to 147 °C. Moreover, the inhibition at 100 ppm in series [2] came to 37%.

For `O=C(Nc1ccc(Oc2ccc(C(F)(F)F)cn2)c(Cl)c1)c1ccccc1` [compound 14], the melting point lay within 170 to 172 °C. The inhibition at 100 ppm in series [2] was 46%.

As to `O=C(Nc1ccc(Oc2ccc(C(F)(F)F)cn2)c(Cl)c1)c1cc(Cl)cc(Cl)c1O` [compound 16], the melting point fell in the range of 176 to 178 °C. The inhibition at 100 ppm in series [2] turned out to be 100%.

Take `Cc1ccccc1NC(=O)c1cc([N+](=O)[O-])ccc1Cl` [compound 19]: the inhibition at 100 ppm in series [1] worked out at 88%; in series [2] it was 96%.

As to `Cc1cc(C23CC4CC(CC(C4)C2)C3)ccc1NS(=O)(=O)c1cc(Cl)ccc1Cl` [compound 24], the melting point came out at 200 °C. In series [2], the inhibition at 100 ppm worked out at 100%.

Take `O=C(Nc1ccccc1C(F)(F)F)c1cc([N+](=O)[O-])ccc1Cl` [compound 39]: the figures for the inhibition at 100 ppm in series [1] and in series [2] were 100% and 97%, respectively.

For the molecule `O=C(Nc1ccc(Nc2ccccc2)cc1)c1cc([N+](=O)[O-])ccc1Cl` [compound 65], the inhibition at 100 ppm in series [1] and in series [2] was 100% throughout.

For `O=C(Nc1ccc(Oc2ccc(C(F)(F)F)cn2)c(Cl)c1)c1ccccc1Cl` [compound 71], the melting point was in the range of 168 to 169 °C. In addition, in series [2], the inhibition at 100 ppm was 89%.

In turn, `O=C(Nc1ccc(Oc2ccc(C(F)(F)F)cn2)c(Cl)c1)c1ccc(Oc2ccc(C(F)(F)F)cn2)c(Cl)c1` [compound 72] returned a melting point of 206 to 209 °C. Also, the inhibition at 100 ppm in series [2] was 51%.

With `O=C(Nc1ccc(Oc2ccc(C(F)(F)F)cc2Cl)cc1)c1cc([N+](=O)[O-])ccc1F` [compound 95], the inhibition at 100 ppm in series [1] and in series [2] was 100% throughout.

`Cc1cc(C23CC4CC(CC(C4)C2)C3)ccc1N(C)C(=O)c1cc([N+](=O)[O-])ccc1Cl` [compound 102]: the inhibition at 100 ppm in series [1] and in series [2] was 100% in each case.

On to `O=C(Nc1ccc([S+]([O-])c2ncc(C(F)(F)F)cc2Cl)cc1)c1cc([N+](=O)[O-])ccc1Cl` (stereo not drawn) [compound 103], for which the inhibition at 100 ppm in series [1] and in series [2] was 100% throughout.

Turning to `O=C(Nc1ccc(S(=O)(=O)c2ncc(C(F)(F)F)cc2Cl)cc1)c1cc([N+](=O)[O-])ccc1Cl` [compound 104], the inhibition at 100 ppm in series [1] and in series [2] was 100% in each case.

Molecule `O=C(Nc1ccc(Oc2ncc(C(F)(F)F)cc2Cl)c([N+](=O)[O-])c1)c1cc([N+](=O)[O-])ccc1Cl` [compound 108] displayed a melting point of 233 to 236 °C.

As to `O=C(Nc1ccc(Oc2ncc(C(F)(F)F)cc2Cl)c(C2CCCCC2)c1)c1cc([N+](=O)[O-])ccc1Cl` [compound 114], the inhibition at 100 ppm in series [1] and in series [2] was 100% throughout.

For `O=C(Nc1ccc(OC2C3CC4CC(C3)CC2C4)nc1)c1cc([N+](=O)[O-])ccc1Cl` (stereo not drawn) [compound 124], the inhibition at 100 ppm in series [1] and in series [2] was 100% each time.

On to `O=C(Nc1ccc(OC23CC4CC(CC(C4)C2)C3)cc1)c1cc([N+](=O)[O-])ccc1Cl` [compound 134], for which the values for the inhibition at 100 ppm in series [1] and in series [2] were 98% and 97%, respectively.

Turning to `O=C(Nc1ccc(NC23CC4CC(CC(C4)C2)C3)nc1)c1cc([N+](=O)[O-])ccc1Cl` [compound 147], the figures for the inhibition at 100 ppm in series [1] and in series [2] were 100% and 99%, respectively.

What is called melting point is the temperature of the solid-liquid transition.
